Source: patent US20220056037A1 (SPV THERAPEUTICS INC., priority 2018, published 2022)
Read-outs that look alike come from different tables or passages of the source.

Assays:
CDK6-CYCLIND3 = biological target: T1, CDK6-CYCLIND3 (Homo sapiens, UniProt Q00534); assay: Inhibition assay, microfluidic LabChip (Nanosyn); type: biochemical; details: ATP 300 μM
T1 construct: purchased Carna
Method: (§1) The reaction was terminated by the addition of EDTA. The plates were analyzed using a Caliper LabChip 3000.
(§2) Additional inhibition assays were performed as described above.

CDK4-CYCLIND1 = biological target: T2, CDK4-CYCLIND1 (Homo sapiens, UniProt P11802); assay: Inhibition assay, microfluidic LabChip (Nanosyn); type: biochemical; details: Table 2; ATP 200 μM; read-out: CDK4 IC50
T2 construct: purchased Invitrogen
T2 sequence (P11802 whole entry): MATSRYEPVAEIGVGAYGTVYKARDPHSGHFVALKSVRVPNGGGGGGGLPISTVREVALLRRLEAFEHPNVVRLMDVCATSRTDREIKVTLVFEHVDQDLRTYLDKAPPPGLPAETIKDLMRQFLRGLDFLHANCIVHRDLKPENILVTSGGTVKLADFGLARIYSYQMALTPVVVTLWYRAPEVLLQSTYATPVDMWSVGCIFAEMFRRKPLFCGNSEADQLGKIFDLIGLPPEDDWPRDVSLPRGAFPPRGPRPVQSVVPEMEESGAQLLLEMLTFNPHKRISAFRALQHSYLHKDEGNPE
T2 sequence (P24385 whole entry partner): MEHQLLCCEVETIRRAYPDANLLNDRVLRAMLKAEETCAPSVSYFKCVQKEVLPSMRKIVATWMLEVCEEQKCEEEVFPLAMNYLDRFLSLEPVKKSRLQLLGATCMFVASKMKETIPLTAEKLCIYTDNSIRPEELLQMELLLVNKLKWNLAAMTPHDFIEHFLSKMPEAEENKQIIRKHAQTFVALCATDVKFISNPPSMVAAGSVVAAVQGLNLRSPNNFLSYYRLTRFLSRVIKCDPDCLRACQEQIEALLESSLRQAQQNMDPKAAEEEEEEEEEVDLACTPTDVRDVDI
Method: as §1, §2

T1 sequence (Q00534 whole entry): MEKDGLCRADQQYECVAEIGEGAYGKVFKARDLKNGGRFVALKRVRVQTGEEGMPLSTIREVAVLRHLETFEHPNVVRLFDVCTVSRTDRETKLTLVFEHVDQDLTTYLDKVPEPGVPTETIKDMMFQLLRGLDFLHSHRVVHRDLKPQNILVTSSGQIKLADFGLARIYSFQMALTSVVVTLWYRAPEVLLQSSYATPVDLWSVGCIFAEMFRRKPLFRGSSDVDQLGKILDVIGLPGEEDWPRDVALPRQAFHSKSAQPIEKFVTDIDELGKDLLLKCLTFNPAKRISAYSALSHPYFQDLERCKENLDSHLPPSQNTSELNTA
T1 sequence (P30281 whole entry partner): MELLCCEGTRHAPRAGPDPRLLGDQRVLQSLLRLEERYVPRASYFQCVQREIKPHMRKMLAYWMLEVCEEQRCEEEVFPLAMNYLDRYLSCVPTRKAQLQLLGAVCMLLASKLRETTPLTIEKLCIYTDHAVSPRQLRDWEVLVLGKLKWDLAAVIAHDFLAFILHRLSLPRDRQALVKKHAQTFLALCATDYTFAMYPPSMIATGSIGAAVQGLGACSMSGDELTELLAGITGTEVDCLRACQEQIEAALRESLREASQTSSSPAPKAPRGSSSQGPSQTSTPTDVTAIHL

SMILES: CN(C)CCOc1ccc(Nc2ncc3c(F)c(C(=O)N(C)C)n(C4CCCC4)c3n2)cc1 [Compound A7, 7-cyclopentyl-2-((4-(2-(dimethylamino)ethoxy)phenyl)amino)-5-fluoro-N,N-dimethyl-7H-pyrrolo[2,3-d]pyrimidine-6-carboxamide]
- IC50 (CDK6-CYCLIND3; Table 2, read-out: CDK6 IC50): 63 nM
- IC50 (CDK4-CYCLIND1): 22.2 nM

SMILES: CN1CCN(c2ccc(Nc3ncc4cc(C(=O)N(C)C)n(C56CC(C5)C6)c4n3)cc2F)CC1 [Compound A30, 7-(bicyclo[1.1.1]pentan-1-yl)-2-((3-fluoro-4-(4-methylpiperazin-1-yl)phenyl)amino)-N,N-dimethyl-7H-pyrrolo[2,3-d]pyrimidine-6-carboxamide]
- IC50 (CDK6-CYCLIND3; Table 2, read-out: CDK6 IC50): 31.7 nM
- IC50 (CDK4-CYCLIND1): 10.7 nM

SMILES: CN(C)C(=O)c1c(F)c2cnc(Nc3ccc(OCCN4CCCC4)c(F)c3)nc2n1C1CCCC1 [Compound A33, 7-cyclopentyl-5-fluoro-2-((3-fluoro-4-(2-(pyrrolidin-1-yl)ethoxy)phenyl)amino)-N,N-dimethyl-7H-pyrrolo[2,3-d]pyrimidine-6-carboxamide]
- IC50 (CDK6-CYCLIND3; Table 2, read-out: CDK6 IC50): 37.4 nM
- IC50 (CDK4-CYCLIND1): 10.1 nM

SMILES: CN(C)C(=O)c1c(F)c2cnc(Nc3ccc(OCCN4CCCC4)nc3)nc2n1C1CCCC1 [Compound A26, 7-cyclopentyl-5-fluoro-N,N-dimethyl-2-((6-(2-(pyrrolidin-1-yl)ethoxy)pyridin-3-yl)amino)-7H-pyrrolo[2,3-d]pyrimidine-6-carboxamide]
- IC50 (CDK6-CYCLIND3; Table 2, read-out: CDK6 IC50): 119 nM
- IC50 (CDK4-CYCLIND1): 39.3 nM

SMILES: CC(C)N1CC=C(c2ccc(Nc3ncc4cc(C(=O)N(C)C)n(C56CC(C5)C6)c4n3)nc2)CC1 [Compound A43, 7-(bicyclo[1.1.1]pentan-1-yl)-2-((1′-isopropyl-1′,2′,3′,6′-tetrahydro-[3,4′-bipyridin]-6-yl)amino)-N,N-dimethyl-7H-pyrrolo[2,3-d]pyrimidine-6-carboxamide]
- IC50 (CDK6-CYCLIND3; Table 2, read-out: CDK6 IC50): 32.9 nM
- IC50 (CDK4-CYCLIND1): 35.6 nM

SMILES: CN(C)C(=O)c1cc2cnc(Nc3ccc(C4=CCNCC4)cn3)nc2n1C12CC(C1)C2 [Compound A13, 7-(bicyclo[1.1.1]pentan-1-yl)-N,N-dimethyl-2-((1′,2′,3′,6′-tetrahydro-[3,4′-bipyridin]-6-yl)amino)-7H-pyrrolo[2,3-d]pyrimidine-6-carboxamide]
- IC50 (CDK6-CYCLIND3; Table 2, read-out: CDK6 IC50): 8.29 nM
- IC50 (CDK4-CYCLIND1): 14.7 nM

SMILES: CN(C)C(=O)c1c(F)c2cnc(Nc3ccc(C4=CCNCC4)cn3)nc2n1C1CCCC1 [Compound A22, 7-cyclopentyl-5-fluoro-N,N-dimethyl-2-((1′,2′,3′,6′-tetrahydro-[3,4′-bipyridin]-6-yl)amino)-7H-pyrrolo[2,3-d]pyrimidine-6-carboxamide]
- IC50 (CDK6-CYCLIND3; Table 2, read-out: CDK6 IC50): 82 nM
- IC50 (CDK4-CYCLIND1): 41.7 nM

SMILES: CN(C)CCOc1ccc(Nc2ncc3c(F)c(C(=O)N(C)C)n(C4CCCC4)c3n2)nc1 [Compound A3, 7-cyclopentyl-2-((5-(2-(dimethylamino)ethoxy)pyridin-2-yl)amino)-5-fluoro-N,N-dimethyl-7H-pyrrolo[2,3-d]pyrimidine-6-carboxamide]
- IC50 (CDK6-CYCLIND3; Table 2, read-out: CDK6 IC50): 64.5 nM
- IC50 (CDK4-CYCLIND1): 48 nM

SMILES: Cc1cc(Nc2ncc3c(F)c(C(=O)N(C)C)n(C4CCCC4)c3n2)ccc1N1CCN(C(C)C)CC1 [Compound A34, 7-cyclopentyl-5-fluoro-2-((4-(4-isopropylpiperazin-1-yl)-3-methylphenyl)amino)-N,N-dimethyl-7H-pyrrolo[2,3-d]pyrimidine-6-carboxamide]
- IC50 (CDK6-CYCLIND3; Table 2, read-out: CDK6 IC50): 103 nM
- IC50 (CDK4-CYCLIND1): 26.2 nM

SMILES: CN(C)C(=O)c1cc2cnc(Nc3ccc(OCCN4CCCC4)c(F)c3)nc2n1C1CCCC1 [Compound A32, 7-cyclopentyl-2-((3-fluoro-4-(2-(pyrrolidin-1-yl)ethoxy)phenyl)amino)-N,N-dimethyl-7H-pyrrolo[2,3-d]pyrimidine-6-carboxamide]
- IC50 (CDK6-CYCLIND3; Table 2, read-out: CDK6 IC50): 10.1 nM
- IC50 (CDK4-CYCLIND1): 1.95 nM

SMILES: CN(C)C(=O)c1cc2cnc(Nc3ccc(OCCN4CCCCC4)cn3)nc2n1C1CCCC1 [Compound A6, 7-cyclopentyl-N,N-dimethyl-2-((5-(2-(piperidin-1-yl)ethoxy)pyridin-2-yl)amino)-7H-pyrrolo[2,3-d]pyrimidine-6-carboxamide]
- IC50 (CDK6-CYCLIND3; Table 2, read-out: CDK6 IC50): 36.4 nM
- IC50 (CDK4-CYCLIND1): 15.2 nM

SMILES: CN(C)C(=O)c1cc2cnc(Nc3ccc(N4CCNCC4)cn3)nc2n1C12CC(C1)C2 [Compound A12, 7-(bicyclo[1.1.1]pentan-1-yl)-N,N-dimethyl-2-((5-(piperazin-1-yl)pyridin-2-yl)amino)-7H-pyrrolo[2,3-d]pyrimidine-6-carboxamide]
- IC50 (CDK6-CYCLIND3; Table 2, read-out: CDK6 IC50): 10 nM
- IC50 (CDK4-CYCLIND1): 12.4 nM

SMILES: CN(C)C(=O)c1cc2cnc(Nc3cc(C(F)(F)F)c(N4CCNCC4)cn3)nc2n1C1CCCC1 [Compound A24, 7-cyclopentyl-N,N-dimethyl-2-((5-(piperazin-1-yl)-4-(trifluoromethyl)pyridin-2-yl)amino)-7H-pyrrolo[2,3-d]pyrimidine-6-carboxamide]
- IC50 (CDK6-CYCLIND3; Table 2, read-out: CDK6 IC50): 1430 nM
- IC50 (CDK4-CYCLIND1): 457 nM

SMILES: CC(C)N1CCN(c2ccc(Nc3ncc4cc(C(=O)N(C)C)n(C56CC(C5)C6)c4n3)cc2)CC1 [Compound A37, 7-(bicyclo[1.1.1]pentan-1-yl)-2-((4-(4-isopropylpiperazin-1-yl)phenyl)amino)-N,N-dimethyl-7H-pyrrolo[2,3-d]pyrimidine-6-carboxamide]
- IC50 (CDK4-CYCLIND1): 52000 nM

SMILES: CN(C)C(=O)c1c(F)c2cnc(Nc3ccc(N4CCN5CCC4CC5)cn3)nc2n1C1CCCC1 [Compound A10, 2-((5-(1,4-diazabicyclo[3.2.2]nonan-4-yl)pyridin-2-yl)amino)-7-cyclopentyl-5-fluoro-N,N-dimethyl-7H-pyrrolo[2,3-d]pyrimidine-6-carboxamide]
- IC50 (CDK6-CYCLIND3; Table 2, read-out: CDK6 IC50): 50 nM
- IC50 (CDK4-CYCLIND1): 30.4 nM

SMILES: CN(C)C(=O)c1cc2cnc(Nc3ccc(C(=O)N4CC[C@H](N(C)C)C4)cc3)nc2n1C12CC(C1)C2 [Compound A44, (S)-7-(bicyclo[1.1.1]pentan-1-yl)-2-((4-(3-(dimethylamino)pyrrolidine-1-carbonyl)phenyl)amino)-N,N-dimethyl-7H-pyrrolo[2,3-d]pyrimidine-6-carboxamide]
- IC50 (CDK6-CYCLIND3; Table 2, read-out: CDK6 IC50): 10.1 nM
- IC50 (CDK4-CYCLIND1): 2.45 nM

SMILES: CN(C)C(=O)c1cc2cnc(Nc3ccc(N4CCNCC4)cc3)nc2n1C12CC(C1)C2 [Compound A16, 7-(bicyclo[1.1.1]pentan-1-yl)-N,N-dimethyl-2-((4-(piperazin-1-yl)phenyl)amino)-7H-pyrrolo[2,3-d]pyrimidine-6-carboxamide]
- IC50 (CDK6-CYCLIND3; Table 2, read-out: CDK6 IC50): 7.68 nM
- IC50 (CDK4-CYCLIND1): 2.94 nM

SMILES: CN1CCN(c2ccc(Nc3ncc4cc(C(=O)N(C)C)n(C56CC(C5)C6)c4n3)nc2)CC1 [Compound A38, 7-(bicyclo[1.1.1]pentan-1-yl)-N,N-dimethyl-2-((5-(4-methylpiperazin-1-yl)pyridin-2-yl)amino)-7H-pyrrolo[2,3-d]pyrimidine-6-carboxamide]
- IC50 (CDK6-CYCLIND3; Table 2, read-out: CDK6 IC50): 23.5 nM
- IC50 (CDK4-CYCLIND1): 15.4 nM

SMILES: CN(C)C(=O)c1cc2cnc(Nc3ccc(N4CCC(N5CCOCC5)CC4)cc3)nc2n1C12CC(C1)C2 [Compound A45, 7-(bicyclo[1.1.1]pentan-1-yl)-N,N-dimethyl-2-((4-(4-morpholinopiperidin-1-yl)phenyl)amino)-7H-pyrrolo[2,3-d]pyrimidine-6-carboxamide]
- IC50 (CDK6-CYCLIND3; Table 2, read-out: CDK6 IC50): 73.3 nM
- IC50 (CDK4-CYCLIND1): 29.3 nM

SMILES: CN1CCN(c2ccc(Nc3ncc4c(F)c(C(=O)N(C)C)n(C5CCCC5)c4n3)nc2)CC1 [Compound A2]
- IC50 (CDK6-CYCLIND3; Table 2, read-out: CDK6 IC50): 54.3 nM
- IC50 (CDK4-CYCLIND1): 37.9 nM

SMILES: COc1cc(Nc2ncc3c(F)c(C(=O)N(C)C)n(C4CCCC4)c3n2)ccc1N1CCN(C(C)C)CC1 [Compound A35, 7-cyclopentyl-5-fluoro-2-((4-(4-isopropylpiperazin-1-yl)-3-methoxyphenyl)amino)-N,N-dimethyl-7H-pyrrolo[2,3-d]pyrimidine-6-carboxamide]
- IC50 (CDK6-CYCLIND3; Table 2, read-out: CDK6 IC50): 217 nM
- IC50 (CDK4-CYCLIND1): 43.8 nM

SMILES: CN(C)C(=O)c1c(F)c2cnc(Nc3ccc(N4CCOCC4)c(F)c3)nc2n1C1CCCC1 [Compound A20, 7-cyclopentyl-5-fluoro-2-((3-fluoro-4-morpholinophenyl)amino)-N,N-dimethyl-7H-pyrrolo[2,3-d]pyrimidine-6-carboxamide]
- IC50 (CDK6-CYCLIND3; Table 2, read-out: CDK6 IC50): 74.6 nM
- IC50 (CDK4-CYCLIND1): 33 nM

SMILES: CN(C)C(=O)c1c(F)c2cnc(Nc3ccc(N4CCNCC4)cn3)nc2n1C1CCCC1 [Compound A1, 7-cyclopentyl-5-fluoro-N,N-dimethyl-2-((5-(piperazin-1-yl)pyridin-2-yl)amino)-7H-pyrrolo[2,3-d]pyrimidine-6-carboxamide]
- IC50 (CDK6-CYCLIND3; Table 2, read-out: CDK6 IC50): 54.3 nM
- IC50 (CDK4-CYCLIND1): 38.7 nM

SMILES: CN(C)C(=O)c1cc2cnc(Nc3ccc(N4CCN(C#N)CC4)cn3)nc2n1C1CCCC1 [Compound A23, 2-((5-(4-cyanopiperazin-1-yl)pyridin-2-yl)amino)-7-cyclopentyl-N,N-dimethyl-7H-pyrrolo[2,3-d]pyrimidine-6-carboxamide]
- IC50 (CDK6-CYCLIND3; Table 2, read-out: CDK6 IC50): 97 nM
- IC50 (CDK4-CYCLIND1): 34.3 nM

SMILES: CC(C)N1CCN(c2ccc(Nc3ncc4c(F)c(C(=O)N(C)C)n(C5CCCC5)c4n3)cc2)CC1 [Compound A36, 7-cyclopentyl-5-fluoro-2-((4-(4-isopropylpiperazin-1-yl)phenyl)amino)-N,N-dimethyl-7H-pyrrolo[2,3-d]pyrimidine-6-carboxamide]
- IC50 (CDK6-CYCLIND3; Table 2, read-out: CDK6 IC50): 32.5 nM
- IC50 (CDK4-CYCLIND1): 8.17 nM

SMILES: Cc1cc(Nc2ncc3cc(C(=O)N(C)C)n(C45CC(C4)C5)c3n2)ccc1N1CCN(C(C)C)CC1 [Compound A31, 7-(bicyclo[1.1.1]pentan-1-yl)-2-((4-(4-isopropylpiperazin-1-yl)-3-methylphenyl)amino)-N,N-dimethyl-7H-pyrrolo[2,3-d]pyrimidine-6-carboxamide]
- IC50 (CDK6-CYCLIND3; Table 2, read-out: CDK6 IC50): 33.7 nM
- IC50 (CDK4-CYCLIND1): 9 nM

SMILES: CC(C)N1CC=C(c2ccc(Nc3ncc4c(F)c(C(=O)N(C)C)n(C5CCCC5)c4n3)nc2)CC1 [Compound A21, 7-cyclopentyl-5-fluoro-2-((1′-isopropyl-1′,2′,3′,6′-tetrahydro-[3,4′-bipyridin]-6-yl)amino)-N,N-dimethyl-7H-pyrrolo[2,3-d]pyrimidine-6-carboxamide]
- IC50 (CDK6-CYCLIND3; Table 2, read-out: CDK6 IC50): 98.6 nM
- IC50 (CDK4-CYCLIND1): 51.2 nM

SMILES: CN1CCN(c2ccc(Nc3ncc4cc(C(=O)N(C)C)n(C56CC(C5)C6)c4n3)cc2)CC1 [Compound A14, 7-(bicyclo[1.1.1]pentan-1-yl)-N,N-dimethyl-2-((4-(4-methylpiperazin-1-yl)phenyl)amino)-7H-pyrrolo[2,3-d]pyrimidine-6-carboxamide]
- IC50 (CDK6-CYCLIND3; CDK6 IC50, Table 2): 7.08 nM
